{"source": "patent US20220000852A1", "about": "“5-HT2A SEROTONIN RECEPTOR INVERSE AGONISTS OR ANTAGONISTS FOR USE IN REDUCING AMYLOID-BETA PEPTIDES AND ACCUMULATION OF AMYLOID PLAQUES” (ACADIA Pharmaceuticals Inc., priority 2016, published 2022)", "key": {"ISF Aβ [1]": {"test_system": "ISF Aβ", "experiment": "ISF Aβ levels by hippocampal microdialysis and sandwich ELISA in APP/PS1+/− transgenic mice", "type": "in vivo", "details": "for ISF levels of Aβ: Example 1", "protocol": "Wild-type or APP/PS1+/− transgenic mice at the indicated ages (equal male and female) were implanted with unilateral hippocampal microdialysis probes at stereotaxic coordinates (bregma—3.1 mm, 2.5m lateral to midline, and 1.2 mm below dura at a 12° angle) as described (Cirrito et al. 2003; 2011). These probes contain a 38 kDa MWCO semi-permeable membrane and sample Aβ specifically from within the brain ISF. ISF Aβ was measured every 60-90 minutes for up to 72 hours after probe was inserted into the brain. Throughout each study mice was housed in RaTurn caging systems to provide freedom of movement and ad lib food and water while attached the microdialysis equipment. After probe insertion, animals were allowed to recover for 6 hours in order for the brain to recover and the blood-brain barrier to reform. Microdialysis probe insertion was similar to the procedure described by Cirrito et al. 2003 and 2011. From hours 6-60 after microdialysis probe insertion, ISF Aβ levels were relatively constant which provides the ideal experimental window. After recovery, each mouse had baseline ISF Aβ levels sampled every hour over a 6 hour period followed by administration of either vehicle (saline, pH 6.0 or M DL 100,907. Following drug administration, ISF Aβ was measured every 60-90 minutes for an additional 48 hours. At the end of each experiment ISF Aβ40 was immediately measured by sandwich ELISA. Animals were sacrificed, brains removed, then processed for histological verification of probe placement. FIG. 1A-FIG. 1D discloses the results of Example 1 (MDL 100,907 (M100), a selective 5-HT2A Serotonin Receptor Inverse Agonist on ISF levels of Aβ40 and Aβ42 in wild-type, and in young and aged APP/PS1+/− Transgenic Mice). […] APP/PS1+/− transgenic mice at the indicated ages (equal male and female) were implanted with unilateral hippocampal microdialysis probes at stereotaxic coordinates (bregma—3.1 mm, 2.5m lateral to midline, and 1.2 mm below dura at a 12° angle) as described (Cirrito et al. 2003 and 2011) and ISF Aβ levels measured as described in Example 1. […]"}, "ISF Aβ [2]": {"test_system": "ISF Aβ", "experiment": "ISF Aβ levels by hippocampal microdialysis in 5-HT2A−/− mice", "type": "in vivo", "details": "5-HT2A KO (5-HT2A−/−) mice; Example 3; pimavanserin 1 mg/kg, MDL 100,907 3 mg/kg", "protocol": "Following drug administration, ISF Aβ was measured every 3 hours for an additional 24 hours."}, "ISF Aβ [3]": {"test_system": "ISF Aβ", "experiment": "ISF Aβ levels by hippocampal microdialysis in wild-type mice", "type": "in vivo", "details": "2.5 to 3 months, Example 3, pimavanserin 1 mg/kg, MDL 100,907 3 mg/kg", "protocol": "Wild-type or APP/PS1+/− transgenic mice at the indicated ages (equal male and female) were implanted with unilateral hippocampal microdialysis probes at stereotaxic coordinates (bregma—3.1 mm, 2.5m lateral to midline, and 1.2 mm below dura at a 12° angle) as described (Cirrito et al. 2003; 2011). These probes contain a 38 kDa MWCO semi-permeable membrane and sample Aβ specifically from within the brain ISF. ISF Aβ was measured every 60-90 minutes for up to 72 hours after probe was inserted into the brain. Throughout each study mice was housed in RaTurn caging systems to provide freedom of movement and ad lib food and water while attached the microdialysis equipment. […] After recovery, each mouse had baseline ISF Aβ levels sampled every hour over a 6 hour period followed by administration of either vehicle (saline, pH 6.0 or M DL 100,907. Following drug administration, ISF Aβ was measured every 60-90 minutes for an additional 48 hours. At the end of each experiment ISF Aβ40 was immediately measured by sandwich ELISA. Animals were sacrificed, brains removed, then processed for histological verification of probe placement. FIG. 1A-FIG. 1D discloses the results of Example 1 (MDL 100,907 (M100), a selective 5-HT2A Serotonin Receptor Inverse Agonist on ISF levels of Aβ40 and Aβ42 in wild-type, and in young and aged APP/PS1+/− Transgenic Mice). […]"}, "beta amyloid": {"test_system": "beta amyloid", "details": "cited from earlier work; for beta amyloid levels and Plaque Burden: Mouse Model of AD"}, "Aβ40 and Aβ42 [4]": {"test_system": "Aβ40 and Aβ42", "experiment": "Aβ40 and Aβ42 in CSF (ELISA) after chronic treatment of APP/PS1+/− mice", "type": "in vivo", "details": "6 month old APP/PS1 mice treated for 4 months; Example 8", "text": "(§1) Incisions were closed by suture or staple to insure the pumps remained in place. Every 5 weeks pumps were removed and new full pumps implanted in the same manner at a different location on the back to provide continuous drug delivery over the 4 month period. In parallel, age and gender matched cohorts of APP/PS1+/− transgenic mice were sacrificed so that amyloid plaque and Aβ levels at the start of treatment could be compared to mice at the end of treatment. […] At the end of the 4 month treatment period, mice were sacrificed, brains removed, and divided into hemispheres. One hemisphere per mouse was processed for guanidine extraction and biochemical analysis by ELISA of Aβ40 and Aβ42 levels in hippocampus as described in Cirrito et al., 2011, with the 5 Molar Guanidine extracts representing the insoluble fractions of Aβ40 and Aβ42. The insoluble fraction is believed to represent the harmful amyloid plaque deposits that are characteristic of Alzheimer's disease. […]\nMale and Female APP/PS1+/− transgenic mice, age 6 months, were implanted with Alzet osmotic minipumps and treated as described in Example 4. At the end of the 4 month treatment period, mice were sacrificed, CSF removed using the method of DeMattos et al., 2002 (see page 230, Materials and Methods), and Aβ40 and Aβ42 levels analyzed by ELISA. […]"}, "amyloid plaque": {"test_system": "amyloid plaque", "experiment": "Histological staining of hippocampus for amyloid plaque load after chronic treatment of APP/PS1+/− mice", "type": "in vivo", "text": "as §1, with “disease. The other hemisphere was used to perform histological staining and analysis of amyloid plaque growth. Start indicates the age and gender matched cohorts sacrificed at the start of the study. Guan indicates 5 Molar Gaunidine. FIG. 4A) 5M Gaunidine fraction of Aβ40 and Aβ42, all genders. FIG. 4B) 5M Guanidine fraction, male and female.” for “disease.”"}, "Aβ40 and Aβ42 [5]": {"test_system": "Aβ40 and Aβ42", "experiment": "Aβ40 and Aβ42 in 5M guanidine hippocampal extracts (ELISA) after chronic treatment of APP/PS1+/− mice", "type": "in vivo", "text": "Incisions were closed by suture or staple to insure the pumps remained in place. Every 5 weeks pumps were removed and new full pumps implanted in the same manner at a different location on the back to provide continuous drug delivery over the 4 month period. In parallel, age and gender matched cohorts of APP/PS1+/− transgenic mice were sacrificed so that amyloid plaque and Aβ levels at the start of treatment could be compared to mice at the end of treatment. […] At the end of the 4 month treatment period, mice were sacrificed, brains removed, and divided into hemispheres. One hemisphere per mouse was processed for guanidine extraction and biochemical analysis by ELISA of Aβ40 and Aβ42 levels in hippocampus as described in Cirrito et al., 2011, with the 5 Molar Guanidine extracts representing the insoluble fractions of Aβ40 and Aβ42. The insoluble fraction is believed to represent the harmful amyloid plaque deposits that are characteristic of Alzheimer's disease. The other hemisphere was used to perform histological staining and analysis of amyloid plaque growth. Start indicates the age and gender matched cohorts sacrificed at the start of the study. Guan indicates 5 Molar Gaunidine. FIG. 4A) 5M Gaunidine fraction of Aβ40 and Aβ42, all genders. FIG. 4B) 5M Guanidine fraction, male and female.\nMale and Female APP/PS1+/− transgenic mice, age 6 months, were implanted with Alzet osmotic minipumps and treated as described in Example 4. At the end of the 4 month treatment period, mice were sacrificed, brains removed, and divided into hemispheres. In parallel, age and gender matched cohorts of APP/PS1+/− transgenic mice were sacrificed so that amyloid plaque and Aβ levels at the start of treatment could be compared to mice at the end of treatment. Start indicates the age and gender matched cohorts sacrificed at the start of the study. Guan indicates 5 Molar Gaunidine. FIG. 6A) 5M Gaunidine fraction of Aβ40 and Aβ42, all genders. FIG. 6B) F) 5M Guanidine fraction of Aβ40 and Aβ42, male and female. […] Example 7."}}, "data": [{"smiles": "COc1cccc([C@H](O)C2CCN(CCc3ccc(F)cc3)CC2)c1OC", "note": "[M100,907, (R)-(+)-α-(2,3-Dimethoxyphenyl)-1-[2-(4-fluorophenyl)ethyl]-4-piperinemethanol]", "values": [{"measurement": "ISF levels of Aβ", "setting": "ISF Aβ [1]; old (12 month old, fully formed amyloid plaques) APP/PS1 mice", "result": "robustly lowered levels of Aβ in a dose dependent manner"}, {"measurement": "ISF levels of Aβ", "setting": "ISF Aβ [1]; young (3 month old, pre-plaque) APP/PS1 mice", "result": "robustly lowered levels of Aβ in a dose dependent manner"}, {"measurement": "Aβ-lowering effect on ISF Aβ", "setting": "ISF Aβ [2]", "result": "abolished"}, {"measurement": "Brain ISF Aβ levels", "setting": "ISF Aβ [3]", "result": "Normalize Brain ISF Aβ Levels"}]}, {"smiles": "CN(C)CC(c1ccc(O)cc1)C1(O)CCCCC1", "note": "(centres unmarked) [desvenlafaxine]", "values": [{"measurement": "beta amyloid levels and Plaque Burden", "setting": "beta amyloid", "result": "lower beta amyloid levels and Plaque Burden"}]}, {"smiles": "CNCCC(Oc1ccc(C(F)(F)F)cc1)c1ccccc1", "note": "(centres unmarked) [fluoxetine]", "values": [{"measurement": "beta amyloid levels and Plaque Burden", "setting": "beta amyloid", "result": "lower beta amyloid levels and Plaque Burden"}]}, {"smiles": "CC(C)COc1ccc(CNC(=O)N(Cc2ccc(F)cc2)C2CCN(C)CC2)cc1.O=C(O)C(O)C(O)C(=O)O", "note": "[pimavanserin, N-(1-methylpiperidin-4-yl)-N-(4-fluorophenylmethyl)-N′-(4-(2-methylpropyloxy)phenylmethyl)carbamide]", "values": [{"measurement": "ISF Aβ", "setting": "ISF Aβ [1]; APP/PS1 mice, single bolus doses or continuous infusion, Example 2", "result": "robustly lowered ISF Aβ in APP/PS1 mice in a dose dependent manner"}, {"measurement": "Brain ISF Aβ levels", "setting": "ISF Aβ [3]", "result": "Normalize Brain ISF Aβ Levels"}, {"measurement": "Aβ in CSF", "setting": "Aβ40 and Aβ42 [4]", "result": "significantly lowered Aβ"}, {"measurement": "amyloid plaque in hippocampus (histological staining), compared to vehicle treated mice", "setting": "amyloid plaque; treatment from age 4.5 months for 4 months, Example 5", "result": "highly significant decreases of amyloid plaque"}, {"measurement": "amyloid plaque in hippocampus (histological staining), compared to vehicle treated mice", "setting": "amyloid plaque; treatment from age 6 months for 4 months, Example 7", "result": "highly significant decreases of amyloid plaque"}, {"measurement": "Aβ40 (guanidine fraction) in male mice, treated group (age 10 months) compared to start group (age 6 months)", "setting": "Aβ40 and Aβ42 [5]; male mice, Example 6B", "result": "reduction in Aβ40"}, {"measurement": "levels of the guanidine fraction of Aβ40 and Aβ42 in hippocampus, compared to vehicle treated mice", "setting": "Aβ40 and Aβ42 [5]; treatment from age 4.5 months for 4 months, osmotic minipump 3 mg/kg/day, Example 4", "result": "highly significant reduction"}, {"measurement": "levels of Aβ40 and Aβ42 (guanidine fraction), treated group at end compared to 'Start' group", "setting": "Aβ40 and Aβ42 [5]; treatment from age 4.5 months for 4 months, Example 4", "result": "not a significant difference"}, {"measurement": "levels of the guanidine fraction of Aβ40 and Aβ42 in hippocampus, compared to vehicle treated mice", "setting": "Aβ40 and Aβ42 [5]; treatment from age 6 months for 4 months, osmotic minipump, Example 6", "result": "highly significant reduction"}, {"measurement": "levels of Aβ40 and Aβ42 (guanidine fraction), treated group at end compared to 'Start' group", "setting": "Aβ40 and Aβ42 [5]; treatment from age 6 months for 4 months, Example 6", "result": "not a significant difference"}]}, {"smiles": "NCCc1c[nH]c2ccc(O)cc12", "note": "[serotonin]", "values": [{"measurement": "ISF Aβ40 and Aβ42 levels", "setting": "beta amyloid; direct infusion into the hippocampus", "result": "reduced ISF Aβ40 and Aβ42 levels"}]}]}
